Experiment [1] concerns the target Y748F mutant of PDE8A catalytic domain (Homo sapiens, UniProt O60658, Y748F). Particulars: cited from earlier work.
Experiment [2] has as its system unstimulated mouse splenocytes. The experiment is described as follows: transwell chemotaxis assay in response to CXCL12, unstimulated splenocytes. Type of experiment: cell-based. Particulars: Mus musculus, Splenocyte, 4 h; read-out: inhibition of CXCL12-induced migration. As to the method:
(§1) Isolation of murine splenocytes. Splenocytes were isolated from 6-8 week old C57BL/6 mice obtained from Jackson Laboratories (Bar Harbor, Me.). Spleens were removed and a single-cell suspension prepared using 40 μm cell strainers (Fisher Scientific). Cells were washed with RPMI 1640 medium supplemented with 5% fetal bovine serum, 2 mM L-glutamine, 100 U/ml penicillin and […] (all from GIBCO). Red blood cells were lysed using standard lysis buffer (0.15M NH4Cl, 10mM KHCO3, 0.1 mM EDTA PH 7.4). Cells were then washed and used in chemotaxis assays either as unstimulated cells or after stimulation with Con A ([…]) as indicated.
(§2) Preparation of Test Reagents. […] This concentration of DMSO had no effect on migration of splenocytes in the presence or absence of CXCL12. CXCL12 was prepared as a 100 μg/ml stock solution in PBS+0.1% BSA, Con A was prepared as a stock of 2.5 mg/ml in PBS, and dibutyryl cAMP and Rp-cAMPS were prepared as 50 mM stock solutions in water, and these reagents were diluted directly into the chemotaxis assays.
(§3) Chemotaxis Assay. Chemotaxis assays were done in 24-well transwell plates with a pore size of 5 μm (Costar, Corning). Splenocytes were placed in medium at a concentration of 3×10^6 cells/ml. Where test agents were used, splenocytes were pretreated with the agent or vehicle for 45 to 60 min, following which 100 μl of the splenocyte suspension was placed into the upper chamber of transwell plates, and the lower chamber was filled with 600 μl of medium. When added to induce migration, CXCL12 (250 ng/ml) was added to the lower chamber only. Other test reagents were added as indicated to both the upper and lower chambers. After 4 hours of incubation at 37° C. in 5% CO2, transwell inserts were gently removed and the number of cells that migrated into the lower chamber were counted by withdrawing 500 μl of lower chamber medium, mixing it with 10 ml of buffer and counting the cells on a Coulter Counter (Beckman Coulter Z series). Where results are expressed as % of CXCL12-stimulated migration, this was calculated as follows: (cells migrated in presence of CXCL12 and test reagent—cells migrated in medium alone)/(cells migrated in presence of CXCL12-cells migrated in medium alone)×100. Experimental points for all chemotaxis assays were performed in triplicate.
(§4) Splenocytes isolated from mice were assayed for migration in response to CXCL12 (250 ng/ml), either directly (unstimulated) or following 48 hr of incubation with 3 μg/ml Con A (stimulated), as described in Methods. To test for effects of dibutyryl cAMP, cells were pretreated with dibutyryl cAMP (500 μM) for 45-60 min prior to beginning the chemotaxis assay, and the assays were conducted with dibutyryl cAMP (db-cAMP) present (500 μM) in both the upper and lower chambers of the transwell plates. Data plotted are derived from a single experiment performed in triplicate. *p<0.001; **p<0.02.

Experiment [3] relates to CD4+CD25− T cells. The experiment is described as follows: cAMP levels in CD4+CD25− T cells. Type of experiment: cell-based, mouse. Particulars: 20 minutes of treatment; resolved by 90 minutes. On the technique in general: Changes in cAMP serve as a functional read-out for many G protein-coupled receptors.
The subject of experiment [4] is Con A-stimulated mouse splenocytes. The experiment is described as follows: transwell chemotaxis assay in response to CXCL12, Con A-stimulated splenocytes. The format is cell-based. The note with it: Mus musculus, Splenocyte, 4 h; read-out: inhibition of CXCL12-induced migration. As to the method:
as §1, §2, §3, §4

The subject of experiment [5] is Con A-activated splenocytes on TNF-α activated bEnd.3 endothelial cells. The experiment in a line: T cell-endothelial cell adhesion assay (Example 13). The format is cell-based, mouse. The method, then:
Cell treatment. Confluent bEnd.3 monolayers were incubated with 200 ng/ml TNF-α (Peprotech, Rocky Hill, N.J.) at 37° c. for 2 hours. […] Christoff Zitt and Armin Hatzelmann (Altana Pharma, Konstanz, Germany). Con A-activated splenocytes or CD4^+CD25^− T cells activated with plate-bound anti-CD3 mAb were treated with the same reagents for 20, 45, or 90 minutes.
Adhesion assays. Adhesion assays were performed in 24-well plates with a confluent layer of bEnd.3 cells. Splenocytes or CD4^+CD25^− T cells were labeled with 5 μM Calcein AM (Molecular Probes, Eugene, Oreg.) and treated as described above. 7×10^5 pretreated splenocytes or CD4^+CD25^− T cells per well were incubated on bEnd.3 cells in RPMI media. After 30 minutes at 37° C., non-adherent cells were removed by washing with D-PBS. For analysis, 7×10^5 Calcein AM labeled splenocytes or CD4^+CD25^− T cells were used as positive controls. Fluorescence was read in a Victor 3v microplate reader (Perkin Elmer, Waltham, Mass.) with a fluorescein filter set. The percentage of adherent T cells, i.e. labeled cells resistant to detachment, was calculated as total fluorescence of well divided by fluorescence of 7×10^5 Calcein AM labeled cells multiplied by 100.
In FIGS. 20A-20B, splenocytes from C57BL/6 mice were activated with Con A (3 μg/ml) for 48 hours followed by a 45 minute incubation with (A) IBMX (300 μM), piclamilast (Picl, 1 μM) or DP (100 μM), (B) dibutryl cAMP (Db-cAMP, 500 μM) or DP in the presence or absence of adenosine deaminase (AD, 1 U/ml) or vehicle (0.1% DMSO). bEnd.3 endothelial cells were activated for 2 hours with TNF-α (200 ng/ml) and incubated with the same reagents for the final 45 minutes before splenocytes were added to the bEnd.3 cells for the adhesion assay. The data are presented as the mean±SEM percentage of splenocytes which were resistant to detachment. Results are representative of at least three independent experiments run in triplicate (*p<0.05, **p<0.001; one way ANOVA followed by Bonferroni t-test).

Chain of Y748F mutant of PDE8A catalytic domain (O60658 480-820 Y748F limits assumed): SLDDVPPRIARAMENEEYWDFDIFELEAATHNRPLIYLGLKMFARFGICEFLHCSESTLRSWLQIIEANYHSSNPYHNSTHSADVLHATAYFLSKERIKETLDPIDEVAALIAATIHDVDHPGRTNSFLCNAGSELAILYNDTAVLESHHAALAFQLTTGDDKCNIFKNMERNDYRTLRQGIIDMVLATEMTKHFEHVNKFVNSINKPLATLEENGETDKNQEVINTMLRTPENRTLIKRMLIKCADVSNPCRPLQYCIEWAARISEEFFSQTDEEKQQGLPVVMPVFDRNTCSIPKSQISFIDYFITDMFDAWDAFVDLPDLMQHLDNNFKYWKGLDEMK

As to `CC(C)Cn1c(=O)n(C)c(=O)c2[nH]cnc21` [IBMX, 3-isobutyl-1-methylxanthine], the “sensitivity of Tyr748-to-phenylalanine mutant to inhibition” value in experiment [1] is recorded as “restores sensitivity”. Further, the inhibition at 300 µM was found to be 57% in experiment [2] and 21% in experiment [4]. Further, in experiment [3], the “cAMP in CD4+CD25− T cells” value was “increase”. The “ability to reduce adhesion of activated T cells to endothelial cells” value in experiment [5] (45 minute incubation, IBMX 300 μM, piclamilast 1 μM, motapizone 1 μM) is recorded as “neither”.

In general, IC50 refers to the concentration at which inhibition is half-maximal. For the molecule `OCCN(CCO)c1nc(N2CCCCC2)c2nc(N(CCO)CCO)nc(N3CCCCC3)c2n1` [Dipyridamole, 2,2′,2″,2′″-(4,8-di(piperidin-1-yl)pyrimido[5,4-d]pyrimidine-2,6-diyl)bis(azanetriyl)tetraethanol], the IC50 in experiment [1] is around 4.1 µM. Also, the results for the inhibition at 100 µM in experiment [2] and in experiment [4] were 55% and 54%, respectively. For the same molecule, in experiment [3], the “cAMP in CD4+CD25− T cells” value is on record as “increase”. In addition, in experiment [5] (short term, activated endothelial cells (discussion)), the “reduction of adhesion of T cells” value is listed as 65%.

Values taken from patent US20090239884A1, “Methods of Treating Inflammation” (priority 2006, published 2009).
